Assay results from ChEMBL document CHEMBL1125208, “Applications of neural networks in quantitative structure-activity relationships of dihydrofolate reductase inhibitors” (J Med Chem, 1991).

Molecular target: T1, Dihydrofolate reductase (Mus musculus) (UniProt P00375)
T1 sequence (whole entry): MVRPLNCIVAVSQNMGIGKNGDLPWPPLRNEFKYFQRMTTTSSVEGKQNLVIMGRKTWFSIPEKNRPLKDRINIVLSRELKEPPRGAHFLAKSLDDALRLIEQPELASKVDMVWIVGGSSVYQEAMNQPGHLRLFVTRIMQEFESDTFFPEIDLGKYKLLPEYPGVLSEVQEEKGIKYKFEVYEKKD
Assay: Inhibition of dihydrofolate reductase from L1210 leukemia tumors

| Structure (SMILES) | Log 1/C |
| --- | --- |
| CC1(C)N=C(N)N=C(N)N1c1cccc(OCCCCOc2ccc(S(=O)(=O)F)cc2)c1 | 7.49 |
| CC1(C)N=C(N)N=C(N)N1c1ccc(CCCCc2ccc(Cl)cc2Cl)cc1 | 7.92 |
| CC1(C)N=C(N)N=C(N)N1c1cccc(OCCOc2ccc(S(=O)(=O)F)cc2)c1 | 7.82 |
| CC1(C)N=C(N)N=C(N)N1c1ccc(CCc2cccc(Cl)c2S(=O)(=O)F)c(Cl)c1 | 8.3 |
| CC1(C)N=C(N)N=C(N)N1c1ccc(Cl)c(OCCCCOc2ccc(S(=O)(=O)F)cc2)c1 | 7.17 |
| CC1(C)N=C(N)N=C(N)N1c1ccc(CCC(=O)Nc2ccc(S(=O)(=O)F)cc2)c(Cl)c1 | 7.62 |
| CC1(C)N=C(N)N=C(N)N1c1cccc(OCC(=O)Nc2ccc(S(=O)(=O)F)cc2)c1 | 6.92 |
| CC1(C)N=C(N)N=C(N)N1c1ccc(OCc2ccc(Cl)cc2S(=O)(=O)F)c(Cl)c1 | 7.52 |
| CC1(C)N=C(N)N=C(N)N1c1ccc(SCC(=O)Nc2cccc(S(=O)(=O)F)c2)c(Cl)c1 | 7.66 |
| CC1(C)N=C(N)N=C(N)N1c1ccc(CCC(=O)Nc2cccc(S(=O)(=O)F)c2)cc1 | 7.74 |
| CC1(C)N=C(N)N=C(N)N1c1ccc(CCCCCCc2ccc(S(=O)(=O)F)cc2)cc1 | 7.12 |
| CC1(C)N=C(N)N=C(N)N1c1ccc(OCCCCNC(=O)Nc2cccc(S(=O)(=O)F)c2)c(Cl)c1 | 7.7 |
| CC1(C)N=C(N)N=C(N)N1c1ccc(OCCCCCCOc2ccc(S(=O)(=O)F)cc2)c(Cl)c1 | 7.46 |
| CC1(C)N=C(N)N=C(N)N1c1ccc(OCCCNC(=O)c2ccc(S(=O)(=O)F)cc2)c(Cl)c1 | 7.34 |
| CC1(C)N=C(N)N=C(N)N1c1ccc(OCCCNC(=O)Nc2cccc(S(=O)(=O)F)c2)c(Cl)c1 | 7.28 |
| CC1(C)N=C(N)N=C(N)N1c1cccc(CCc2ccc(S(=O)(=O)F)cc2)c1 | 8.1 |
| CC1(C)N=C(N)N=C(N)N1c1ccc(OCCCCC(=O)Nc2ccc(S(=O)(=O)F)cc2)c(Cl)c1 | 7.24 |
| CC1(C)N=C(N)N=C(N)N1c1ccc(SCC(=O)Nc2ccc(S(=O)(=O)F)cc2)c(Cl)c1 | 7.42 |
| CC1(C)N=C(N)N=C(N)N1c1ccc(Cl)c(OCCCOc2ccc(S(=O)(=O)F)cc2)c1 | 7.51 |
| CC1(C)N=C(N)N=C(N)N1c1ccc(OCc2ccc(Cl)c(S(=O)(=O)F)c2)c(Cl)c1 | 8 |
| CC1(C)N=C(N)N=C(N)N1c1ccc(CCc2ccc(S(=O)(=O)F)cc2Cl)c(Cl)c1 | 8.33 |
| CC1(C)N=C(N)N=C(N)N1c1ccc(OCCCCOc2ccc(S(=O)(=O)F)cc2)c(Cl)c1 | 7.57 |
| CC1(C)N=C(N)N=C(N)N1c1ccc(OCc2cc(Cl)ccc2S(=O)(=O)F)c(Cl)c1 | 7.27 |
| CC1(C)N=C(N)N=C(N)N1c1ccc(CCCCc2ccc(Cl)c(S(=O)(=O)F)c2)c(Cl)c1 | 8.11 |
| CC1(C)N=C(N)N=C(N)N1c1cccc(CCCCc2cccc(S(=O)(=O)F)c2)c1 | 8.1 |
| CC1(C)N=C(N)N=C(N)N1c1ccc(SCC(=O)Nc2ccc(S(=O)(=O)F)cc2)cc1 | 7.52 |
| CC1(C)N=C(N)N=C(N)N1c1ccc(Cl)c(OCCCCCOc2ccc(S(=O)(=O)F)cc2)c1 | 6.72 |

| Structure (SMILES) | Log 1/C |
| --- | --- |
| CC1(C)N=C(N)N=C(N)N1c1ccc(CNC(=O)Nc2ccc(S(=O)(=O)F)cc2)cc1 | 7.35 |
| CC1(C)N=C(N)N=C(N)N1c1cccc(CNC(=O)Nc2cccc([N+](=O)[O-])c2)c1 | 8.1 |
| CC1(C)N=C(N)N=C(N)N1c1ccc(CCCCc2ccccc2)c(Cl)c1 | 7.92 |
| CC1(C)N=C(N)N=C(N)N1c1ccc(OCc2cccc(C(=O)Nc3cccc(S(=O)(=O)F)c3)c2)c(Cl)c1 | 7.24 |
| CC1(C)N=C(N)N=C(N)N1c1cccc(CCCCc2ccc(Cl)cc2Cl)c1 | 8.03 |
| CC1(C)N=C(N)N=C(N)N1c1ccc(OCCCOc2ccc(S(=O)(=O)F)cc2)c(Cl)c1 | 7.07 |
| CC1(C)N=C(N)N=C(N)N1c1cccc(OCCCOc2ccc(S(=O)(=O)F)cc2)c1 | 7.96 |
| CC1(C)N=C(N)N=C(N)N1c1cccc(CCCCc2ccc(S(=O)(=O)F)cc2)c1 | 8.1 |
| Cc1cc(S(=O)(=O)F)ccc1COc1ccc(N2C(N)=NC(N)=NC2(C)C)cc1Cl | 7.38 |
| Cc1cc(NC(=O)NCCCOc2ccc(N3C(N)=NC(N)=NC3(C)C)cc2Cl)ccc1S(=O)(=O)F | 8.06 |
| CN(C)C(=O)c1cccc(NC(=O)NCc2cccc(N3C(N)=NC(N)=NC3(C)C)c2)c1 | 7.77 |
| CC1(C)N=C(N)N=C(N)N1c1ccc(OCc2ccc(S(=O)(=O)F)cc2)c(Cl)c1 | 7.58 |
| CC1(C)N=C(N)N=C(N)N1c1ccc(CCCCc2cccc(Cl)c2S(=O)(=O)F)c(Cl)c1 | 8.2 |
| Cc1cc(NC(=O)NCc2ccc(N3C(N)=NC(N)=NC3(C)C)cc2)ccc1S(=O)(=O)F | 7.72 |
| CC1(C)N=C(N)N=C(N)N1c1ccc(OCCCNC(=O)Nc2ccc(S(=O)(=O)F)cc2)c(Cl)c1 | 7.68 |
| CC1(C)N=C(N)N=C(N)N1c1ccc(OCC(=O)Nc2cccc(S(=O)(=O)F)c2)c(Cl)c1 | 7.72 |
| COc1cccc(NC(=O)NCc2cccc(N3C(N)=NC(N)=NC3(C)C)c2)c1 | 8.02 |
| CC1(C)N=C(N)N=C(N)N1c1cccc(CCCCc2ccc(S(=O)(=O)F)c(Cl)c2)c1 | 7.7 |
| CC1(C)N=C(N)N=C(N)N1c1cccc(CNC(=O)Nc2cccc(C#N)c2)c1 | 8.19 |
| CC1(C)N=C(N)N=C(N)N1c1ccc(OCc2ccccc2C(=O)Nc2ccc(S(=O)(=O)F)cc2)c(Cl)c1 | 7.24 |
| CC1(C)N=C(N)N=C(N)N1c1ccc(CCc2ccc(Cl)c(S(=O)(=O)F)c2)c(Cl)c1 | 8.27 |
| CC1(C)N=C(N)N=C(N)N1c1ccc(OCCCC(=O)Nc2cccc(S(=O)(=O)F)c2)c(Cl)c1 | 7.17 |
| CC1(C)N=C(N)N=C(N)N1c1ccc(CCCCc2cc(Cl)ccc2S(=O)(=O)F)c(Cl)c1 | 7.06 |
| CC1(C)N=C(N)N=C(N)N1c1ccc(CCc2ccccc2)cc1 | 7.89 |
| CC1(C)N=C(N)N=C(N)N1c1ccc(OCc2c(Cl)cccc2S(=O)(=O)F)c(Cl)c1 | 7.72 |
| CC1(C)N=C(N)N=C(N)N1c1cccc(CCCCc2ccc(Cl)c(S(=O)(=O)F)c2)c1 | 8.37 |
| CC1(C)N=C(N)N=C(N)N1c1ccc(OCCCCNC(=O)c2ccc(S(=O)(=O)F)cc2)c(Cl)c1 | 7.66 |
